Experimental data as given in patent US10925874B2, “Substituted pyrazolopyrimidines as glucocerebrosidase activators” (The United States of America, as Represented by the …, priority 2010, dated 2021).

Target: T1, N370S glucocerebrosidase from human spleen homogenate (Homo sapiens, UniProt P04062, N409S)
T1 construct: N370S glucocerebrosidase from human spleen homogenate as the enzyme preparation; from tissue; host or cells: human spleen homogenate
T1 sequence (P04062 40-536 N409S): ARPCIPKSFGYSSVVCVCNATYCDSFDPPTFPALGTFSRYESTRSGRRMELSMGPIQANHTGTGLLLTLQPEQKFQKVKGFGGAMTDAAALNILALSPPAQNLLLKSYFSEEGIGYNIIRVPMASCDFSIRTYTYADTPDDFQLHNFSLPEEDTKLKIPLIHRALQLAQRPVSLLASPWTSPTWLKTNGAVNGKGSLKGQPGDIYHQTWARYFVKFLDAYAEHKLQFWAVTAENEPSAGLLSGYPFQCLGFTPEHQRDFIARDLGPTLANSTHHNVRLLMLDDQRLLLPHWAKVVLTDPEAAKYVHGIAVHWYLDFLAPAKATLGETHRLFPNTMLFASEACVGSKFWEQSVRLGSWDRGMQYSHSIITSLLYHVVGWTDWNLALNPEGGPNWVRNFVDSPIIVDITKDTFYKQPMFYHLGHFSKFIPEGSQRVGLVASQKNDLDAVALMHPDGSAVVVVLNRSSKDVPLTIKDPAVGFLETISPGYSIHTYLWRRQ
Test: qHTS fluorogenic enzyme assay for activators of N370S glucocerebrosidase (4-methylumbelliferyl-beta-D-glucopyranoside substrate)
Assay type: biochemical
Settings: pH 5.0, 37° C. 40 min
Source text: qHTS Assay for Inhibitors and Activators of N370S glucocerebrosidase as a Potential Chaperone Treatment of Gaucher Disease: Primary Screen Confirmation
This is a fluorogenic enzyme assay with 4-methylumbelliferyl-beta-D-glucopyranoside as the substrate and N370S glucocerebrosidase from human spleen homogenate as the enzyme preparation. Upon the hydrolysis of this fluorogenic substrate, the resulting product, […] which can be detected by a standard fluorescence plate reader. Data were normalized to the controls for basal activity (without enzyme) and 100% activity (with enzyme). The AC50 values were determined from concentration-response data modeled with the standard Hill equation.
Human spleen homogenate is prepared as follows by homogenizing spleen with assay buffer containing 50 mM citric acid (titrated with potassium phosphate to pH 5.0), 100 mM potassium chloride, 10 mM sodium chloride, 1 mM magnesium chloride, 0.01% Tween-20. The protein concentration of the human spleen homogenate is approximated 1.35 ug/ul.
The assay is performed in 1536 well plates according to the following protocol. (1) 2 ul spleen homogenate ([…] final) is added to each well. (2) 23 nL test compound in DMSO solution is added to each well. The final concentration of compound in the test well is 0.5 nM to 58 uM. (3) 2 ul of substrate (1 mM final) are added to each well. (4) Incubate assay plates at 37° C. for 40 min. (5) Add 2 ul stop solution (1M NaOH and 1M Glycine mixture, pH 10) to each well. (6) Detect the assay plate in a ViewLux plate reader (PerkinElmer) using 365 nm excitation with emission at 440 nm.

Row | SMILES | AC50
1 | O=C(Nc1cnn(Cc2ccc(F)cc2)c1)c1cnn2c(C(F)F)cc(-c3ccccc3)nc12 [MLS000662187-01, 7-(difluoromethyl)-N-(1-(4-fluorobenzyl)-1H-pyrazol-4-yl)-5-phenylpyrazolo[1,5-a]pyrimidine-3-carboxamide] | 3.26 µM
2 | CCC(C)c1ccc(NC(=O)c2cnn3c(C(F)F)cc(C)nc23)cc1 (stereo not drawn) [MLS000662237-01, N-(4-sec-butylphenyl)-7-(difluoromethyl)-5-methylpyrazolo[1,5-a]pyrimidine-3-carboxamide] | 5.01 µM
3 | CCc1ccc(NC(=O)c2cnn3c(C(F)F)cc(C)nc23)cc1 [MLS000708974-01, 7-(difluoromethyl)-N-(4-ethylphenyl)-5-methylpyrazolo[1,5-a]pyrimidine-3-carboxamide] | 2.24 µM
4 | Cc1cc(C)n2ncc(C(=O)Nc3ccc(Cl)c(Cl)c3)c2n1 [MLS000765493-01, N-(3,4-dichlorophenyl)-5,7-dimethylpyrazolo[1,5-a]pyrimidine-3-carboxamide] | 7.08 µM
5 | Cc1cc(C)n2ncc(C(=O)Nc3ccc4c(c3)OCO4)c2n1 [NCGC00054856-02, N-(benzo[d][1,3]dioxol-5-yl)-5,7-dimethylpyrazolo[1,5-a]pyrimidine-3-carboxamide] | 6.51 µM
6 | COC(=O)c1ccccc1NC(=O)c1cnn2c1NC(=C1CC1)C=C2C(F)F [NCGC00182132-01, methyl 2-(5-cyclopropylidene-7-(difluoromethyl)-4,5-dihydropyrazolo[1,5-a]pyrimidine-3-carboxamido)benzoate] | 15.8 µM
7 | Cc1ccc(NC(=O)c2cnn3c2NC(=C2CC2)C=C3C(F)F)cc1C [NCGC00182133-01, 5-cyclopropylidene-7-(difluoromethyl)-N-(3,4-dimethylphenyl)-4,5-dihydropyrazolo[1,5-a]pyrimidine-3-carboxamide] | 3.16 µM
8 | Cc1cccc(NC(=O)c2cnn3c2NC(=C2CC2)C=C3C(F)F)n1 [NCGC00182139-01, 5-cyclopropylidene-7-(difluoromethyl)-N-(6-methylpyridin-2-yl)-4,5-dihydropyrazolo[1,5-a]pyrimidine-3-carboxamide] | 12.6 µM
9 | C=C1C=C(C(F)F)n2ncc(C(=O)Nc3ccc(C(C)CC)cc3)c2N1 (stereo not drawn) [NCGC00182141-01, N-(4-sec-butylphenyl)-7-(difluoromethyl)-5-methylene-4,5-dihydropyrazolo[1,5-a]pyrimidine-3-carboxamide] | 2.51 µM
10 | C=C1C=C(C(F)F)n2ncc(C(=O)Nc3cccc(CC)c3)c2N1 [NCGC00182142-01, 7-(difluoromethyl)-N-(3-ethylphenyl)-5-methylene-4,5-dihydropyrazolo[1,5-a]pyrimidine-3-carboxamide] | 10 µM
11 | C=C1C=C(C(F)F)n2ncc(C(=O)N3CCN(c4ccccn4)CC3)c2N1 [NCGC00182144-01, (7-(difluoromethyl)-5-methylene-4,5-dihydropyrazolo[1,5-a]pyrimidin-3-yl)(4-(pyridin-2-yl)piperazin-1-yl)methanone] | 35.5 µM
12 | C=C1C=C(C(F)F)n2ncc(C(=O)NC(C)CC)c2N1 (stereo not drawn) [NCGC00182145-01, N-sec-butyl-7-(difluoromethyl)-5-methylene-4,5-dihydropyrazolo[1,5-a]pyrimidine-3-carboxamide] | 31.6 µM
13 | C=C1C=C(C(F)F)n2ncc(C(=O)NCc3ccc(Cl)cc3Cl)c2N1 [NCGC00182146-01, N-(2,4-dichlorobenzyl)-7-(difluoromethyl)-5-methylene-4,5-dihydropyrazolo[1,5-a]pyrimidine-3-carboxamide] | 10 µM
14 | C=C1C=C(C(F)F)n2ncc(C(=O)NCCc3ccccc3OC)c2N1 [NCGC00182147-01, 7-(difluoromethyl)-N-(2-methoxyphenethyl)-5-methylene-4,5-dihydropyrazolo[1,5-a]pyrimidine-3-carboxamide] | 25.1 µM
15 | C=C1C=C(C(F)F)n2ncc(C(=O)NCc3ccccc3Cl)c2N1 [NCGC00182148-01, N-(2-chlorobenzyl)-7-(difluoromethyl)-5-methylene-4,5-dihydropyrazolo[1,5-a]pyrimidine-3-carboxamide] | 14.1 µM
16 | C=C1C=C(C(F)F)n2ncc(C(=O)NCCc3ccccc3Cl)c2N1 [NCGC00182151-01, N-(2-chlorophenethyl)-7-(difluoromethyl)-5-methylene-4,5-dihydropyrazolo[1,5-a]pyrimidine-3-carboxamide] | 31.6 µM
17 | C=C1C=C(C(F)F)n2ncc(C(=O)N3CCN(c4ccccc4)CC3)c2N1 [NCGC00182152-01, (7-(difluoromethyl)-5-methylene-4,5-dihydropyrazolo[1,5-a]pyrimidin-3-yl)(4-phenylpiperazin-1-yl)methanone] | 31.6 µM
18 | C=C1C=C(C(F)F)n2ncc(C(=O)Nc3ccc(N(CC)CC)cc3)c2N1 [NCGC00182154-01, N-(4-(diethylamino)phenyl)-7-(difluoromethyl)-5-methylene-4,5-dihydropyrazolo[1,5-a]pyrimidine-3-carboxamide] | 11.2 µM
19 | C=C1C=C(C(F)F)n2ncc(C(=O)NCCc3ccc(Cl)cc3)c2N1 [NCGC00182159-01, N-(4-chlorophenethyl)-7-(difluoromethyl)-5-methylene-4,5-dihydropyrazolo[1,5-a]pyrimidine-3-carboxamide] | 15.8 µM
20 | C=C1C=C(C(F)F)n2ncc(C(=O)Nc3ccccc3OCC)c2N1 [NCGC00182160-01, 7-(difluoromethyl)-N-(2-ethoxyphenyl)-5-methylene-4,5-dihydropyrazolo[1,5-a]pyrimidine-3-carboxamide] | 2.51 µM
21 | C=C1C=C(C(F)F)n2ncc(C(=O)NCc3ccccc3C(F)(F)F)c2N1 [NCGC00182161-01, 7-(difluoromethyl)-5-methylene-N-(2-(trifluoromethyl)benzyl)-4,5-dihdyropyrazolo[1,5-a]pyrimidine-3-carboxamide] | 15.8 µM
22 | C=C1C=C(C(F)F)n2ncc(C(=O)NCc3ccccc3OC)c2N1 [NCGC00182162-01, 7-(difluoromethyl)-N-(2-methoxybenzyl)-5-methylene-4,5-dihydropyrazolo[1,5-a]pyrimidine-3-carboxamide] | 14.1 µM
23 | C=C1C=C(C)n2ncc(C(=O)Nc3ccccc3C(=O)OC)c2N1 [NCGC00182165-01, methyl 2-(7-methyl-5-methylene-4,5-dihydropyrazolo[1,5-a]pyrimidine-3-carboxamido)benzoate] | 10 µM
24 | C=C1C=C(C)n2ncc(C(=O)Nc3ccc(F)cc3F)c2N1 [NCGC00182166-01, N-(2,4-difluorophenyl)-7-methyl-5-methylene-4,5-dihydropyrazolo[1,5-a]pyrimidine-3-carboxamide] | 3.98 µM
25 | O=C(Nc1ccc2c(c1)OCCO2)c1cnn2c1NC(=C1CC1)C=C2C(F)F [NCGC00182167-01, 5-cyclopropylidene-7-(difluoromethyl)-N-(2,3-dihydrobenzo[b][1,4]dioxin-6-yl)-4,5-dihydropyrazolo[1,5-a]pyrimidine-3-carboxmaide] | 8.91 µM
26 | O=C(NC1CCCC1)c1cnn2c1NC(=C1CC1)C=C2C(F)F [NCGC00182170-01, N-cyclopentyl-5-cyclopropylidene-7-(difluoromethyl)-4,5-dihydropyrazolo[1,5-a]pyrimidine-3-carboxamide] | 12.6 µM
27 | O=C(Nc1cc(F)ccc1F)c1cnn2c1NC(=C1CC1)C=C2C(F)F [NCGC00182172-01, 5-cyclopropylidene-7-(difluoromethyl)-N-(2,5-difluorophenyl)-4,5-dihydropyrazolo[1,5-a]pyrimidine-3-carboxamide] | 3.16 µM
